Data: US20060205826A1, “Method of using carotenoids in the prevention of cognitive decline and for other neuroprotection functions” (priority 2005, published 2006)
Entries after “also recorded” stand apart in the source; their conditions may differ.

How the values were obtained:
Type in all cases: in vivo
[1] = tested on: MDA, a lipid peroxidation product; assay: MDA concentration by liquid chromatography in serum, eye and hippocampus of diabetic mice
Protocol: Male albino mice were used throughout the study, housed in a environmentally regulated room on a dark-light cycle of 12 hours with free access to food and water. Principles of laboratory animal care (NIH publication no. 85-23, revised 1985) were followed, as well as specific Spanish regulations. Animals were made diabetic with a single subcutaneous injection of 200 mg alloxan/kg body weight (66 mg/ml) in 0.1 M citrate buffer, pH 4.5, at day 0 of the experiment. Control mice were injected with the same volume of vehicle also at day 0 of the experiment.
Mice were identified as diabetic on the basis of blood glucose levels (higher than 16 mM at least 4 days after alloxan treatment). Animals were divided into subgroups as required by the experiment (control, control+lutein, diabetic, diabetic+lutein, diabetic+insulin, diabetic+insulin+lutein). […] Insulin treated animals were injected daily with 500 mU/g body weight since day 4 until the end of the experiment. Mice were killed by cervical dislocation on day 14, and hippocampus and retina were removed and homogenized in pre-chilled 0.2 M potassium phosphate buffer, pH 7.0. These homogenates were used to assay protein, GPx activity and MDA and GSH concentrations. Samples were kept frozen (−80° C.) until biochemical assays were performed. Blood was taken from the tail vein daily to assay blood glucose levels. Glycated hemoglobin was determined in blood samples obtained by heart puncture immediately before killing the animals.
MDA, a lipid peroxidation product, concentration was measured by liquid chromatography according to a modification of the method of Richard et al. (1992) as previously described (Romero et al., 1998). Briefly, 0.1 ml of sample (or standard solutions prepared daily from 1,1,3,3-tetramethoxypropane) and 0.75 ml of working solution (thiobarbituric acid 0.37% and perchloric acid 6.4%; 2/1, v/v) were mixed and heated to 95° C. for 1 h. After cooling (10 min in ice water bath), the flocculent precipitate was removed by centrifugation at 3,200×g for 10 min. The supernatant was neutralized and filtered (0.22 μm) prior to injection on an ODS column 5 μm column (250×4.6 mm). Mobile phase consisted in 50 mM phosphate buffer (pH 6.0): methanol (58:42, v/v). Isocratic separation was performed with 1.0 ml/min flow (HPLC System 325, Kontron) and detection at 532 nm (UV/VIS HPLC Detector 332, Kontron). Calibration curves were run daily.

alloxan diabetic mice = assay: Morris water maze (spatial learning and memory) in diabetic mice
Protocol: Male albino mice were used throughout the study, housed in a environmentally regulated room on a dark-light cycle of 12 hours with free access to food and water. Principles of laboratory animal care (NIH publication no. 85-23, revised 1985) were followed, as well as specific Spanish regulations. Animals were made diabetic with a single subcutaneous injection of 200 mg alloxan/kg body weight (66 mg/ml) in 0.1 M citrate buffer, pH 4.5, at day 0 of the experiment. Control mice were injected with the same volume of vehicle also at day 0 of the experiment. Mice were identified as diabetic on the basis of blood glucose levels (higher than 16 mM at least 4 days after alloxan treatment). Animals were divided into subgroups as required by the experiment (control, control+lutein, diabetic, diabetic+lutein, diabetic+insulin, diabetic+insulin+lutein). Lutein was administered daily at a dose of 0.2 mg/kg p.o since day 4 after alloxan or citrate buffer injection until the end of the experiment. […] Glycated hemoglobin was determined in blood samples obtained by heart puncture immediately before killing the animals. […] We measured the duration from the time the mouse was dropped into the maze to the time the mouse climbed onto the platform (latency time). The latency was recorded manually using a stopwatch. […] The percentage of time spent in each of the pool quadrants was also recorded.

hippocampal stem cells = assay: Hippocampal neurogenesis (BrdU immunostaining, cell counting) in diabetic mice; conditions: two weeks after the induction of diabetes, preliminary data
Excerpt: All animals were killed with a barbiturate overdose; each group had n>8. After intracardial perfusion with 4% paraformaldehyde, brains were cut into 40-μm-thick sections (200 μm, 1 every sixth section, used for electron microscopy analysis) with a vibratome (Leica VT100M).
Sections were immersed free-floating in 0.1 M phosphate buffer plus 0.05 % sodium azide. Twenty-four-well plates were used to keep the sections separate and preserve the order of the series. Sections that were 40 μm thick were used for cell counting. Incubations were performed in 0.1 M phosphate buffer with 0.2% Triton X-100 and 10% normal goat serum. Sections were blocked by incubating for 30 min in a solution of 3% hydrogen peroxide for diaminobenzidine (Sigma) staining. BrdU immunohistochemistry was preceded with DNA denaturation of 25 min of incubation in 2 M HCl at 37° C. The primary antibodies used were 1:200 mouse anti-BrdU (Dako). […]
Cell Counting. BrdU-positive cells were counted in sections spaced 400 μm apart by using a Nikon Eclipse E200 with a Nikon 40X Plan objective (0.65 numerical aperture) throughout the granule cell layer. […] Data were expressed as total, for the whole structure, and also subanalyzed in three regions: anterior, middle, and posterior.

[2] = lutein 100 mg/kg p.o. or insulin 500 mU/g body weight s.c. on days 4-13

CC1=C[C@H](O)CC(C)(C)[C@H]1/C=C/C(C)=C/C=C/C(C)=C/C=C/C=C(C)/C=C/C=C(C)/C=C/C1=C(C)C[C@@H](O)CC1(C)C [Lutein]
MDA levels in hippocampus ([1]; lutein 0.2 mg/kg p.o. or insulin 500 mU/g body weight s.c. on days 4-13): restored | MDA levels in hippocampus ([1]; lutein 0.2 mg/kg p.o. or insulin 500 mU/g body weight s.c. on days 4-13, listed as lutein): able to prevent this effect | MDA levels in ocular tissue [1, 2]: restored | MDA levels in serum [1, 2]: restored | MDA levels in ocular tissue ([1]; lutein 100 mg/kg p.o. or insulin 500 mU/g body weight s.c. on days 4-13, listed as lutein): able to prevent this effect | escape latencies in the Morris water maze (alloxan diabetic mice): diminished | proliferation of hippocampal stem cells (hippocampal stem cells): able to prevent the impairment in proliferation; also recorded: able to restore this alteration
